Legend:
Format in all cases: in vivo
[1] = system: Thrips tabaci; test: Thrips tabaci (onion thrips): feeding/contact activity; details: 144 h, application rate 200 ppm, Thrips population of mixed ages, 6 days after infestation, read-out: mortality
Procedure: (§1) Sunflower leaf discs were placed on agar in 24-well microtiter plates and sprayed with aqueous test solutions prepared from 10'000 ppm DMSO stock solutions. After drying the leaf discs were infested with a Thrips population of mixed ages. The samples were assessed for mortality 6 days after infestation.

[2] = system: Tetranychus urticae; test: Tetranychus urticae (two-spotted spider mite): feeding/contact activity; details: 192 h, application rate 200 ppm, mixed population (mobile stages), 8 days after infestation, read-out: mortality
Procedure: as §1, with “Bean” for “Sunflower”, “discs” for “discs were placed”, “were” for “and”, “mite” for “Thrips”, “on mixed population (mobile stages) 8” for “6”

[3] = system: Diabrotica balteata; test: Diabrotica balteata (corn root worm), sprayed maize sprouts; details: 96 h, application rate 200 ppm, L2 larvae, 4 days after infestation, read-out: effect in at least one of the two categories (mortality or growth inhibition)
Procedure: Maize sprouts placed onto an agar layer in 24-well microtiter plates were treated with aqueous test solutions prepared from 10'000 ppm DMSO stock solutions by spraying. After drying, the plates were infested with L2 larvae (6 to 10 per well). The samples were assessed for mortality and growth inhibition in comparison to untreated samples 4 days after infestation.
(§2) The following compounds gave an effect of at least 80% in at least one of the two categories (mortality or growth inhibition) at an application rate of 200 ppm: […]

[4] = system: Plutella xylostella; test: Plutella xylostella (diamond back moth), artificial diet; details: 120 h, application rate 200 ppm, L2 larvae, 5 days after infestation, read-out: effect in at least one of the two categories (mortality or growth inhibition)
Procedure: 24-well microtiter plates with artificial diet were treated with aqueous test solutions prepared from 10'000 ppm DMSO stock solutions by pipetting. After drying, the plates were infested with L2 larvae (10 to 15 per well). The samples were assessed for mortality and growth inhibition in comparison to untreated samples 5 days after infestation.
as §2

[5] = system: Euschistus heros; test: Euschistus heros (neotropical brown stink bug), sprayed soybean leaves; details: 120 h, application rate 200 ppm, N2 nymphs, 5 days after infestation, read-out: effect in at least one of the two categories (mortality or growth inhibition)
Procedure: Soybean leaves on agar in 24-well microtiter plates were sprayed with aqueous test solutions prepared from 10'000 ppm DMSO stock solutions. After drying the leaves were infested with N2 nymphs. The samples were assessed for mortality and growth inhibition in comparison to untreated samples 5 days after infestation.
as §2

[6] = system: Spodoptera littoralis; test: Spodoptera littoralis (Egyptian cotton leaf worm), sprayed cotton leaf discs; details: foliar, 72 h, application rate 200 ppm, L1 larvae, 3 days after infestation, read-out: control (mortality, anti-feeding effect, growth inhibition)
Procedure: Cotton leaf discs were placed onto agar in 24-well microtiter plates and sprayed with aqueous test solutions prepared from 10'000 ppm DMSO stock solutions. After drying the leaf discs were infested with five L1 larvae. The samples were assessed for mortality, anti-feeding effect, and growth inhibition in comparison to untreated samples 3 days after infestation. Control of Spodoptera littoralis by a test sample is given when at least one of the categories mortality, anti-feedant effect, and growth inhibition is higher than the untreated sample.

Cc1cc(C2=NO[C@@](c3cc(Cl)c(Cl)c(Cl)c3)(C(F)(F)F)C2)ccc1C(=O)N[C@H]1CON(S(=O)(=O)CC(F)(F)F)C1 [Compound A221, 2-methyl-4-[(5S)-5-(3,4,5-trichlorophenyl)-5-(trifluoromethyl)-4H-1,2-oxazol-3-yl]-N-[(4R)-2-(2,2,2-trifluoroethylsulfonyl)-1,2-oxazolidin-4-yl]benzamide]
≥ 80%: mortality at 200 ppm [1] | mortality at 200 ppm [2] | percent effect (mortality or growth inhibition) at 200 ppm [3] | percent effect (mortality or growth inhibition) at 200 ppm [4] | percent effect (mortality or growth inhibition) at 200 ppm [5] | mortality at 200 ppm [6]

Cc1cc(C2=NO[C@@](c3cc(Cl)c(F)c(Cl)c3)(C(F)(F)F)C2)ccc1C(=O)NC1CON(S(=O)(=O)c2cccs2)C1 (stereo partly drawn) [Compound A9]
≥ 80%: mortality at 200 ppm [1] | mortality at 200 ppm [2] | percent effect (mortality or growth inhibition) at 200 ppm [3] | percent effect (mortality or growth inhibition) at 200 ppm [4] | percent effect (mortality or growth inhibition) at 200 ppm [5] | mortality at 200 ppm [6]

CS(=O)(=O)N1CC(NC(=O)c2ccc(C3=NOC(c4cc(Cl)cc(Cl)c4)(C(F)(F)F)C3)cc2C(F)(F)F)CO1 (stereo not drawn) [Compound A58]
≥ 80%: mortality at 200 ppm [1] | mortality at 200 ppm [2] | percent effect (mortality or growth inhibition) at 200 ppm [3] | percent effect (mortality or growth inhibition) at 200 ppm [4] | percent effect (mortality or growth inhibition) at 200 ppm [5] | mortality at 200 ppm [6]

Cc1cc(C2=NO[C@@](c3cc(Cl)c(F)c(Cl)c3)(C(F)(F)F)C2)ccc1C(=O)NC1CON(S(=O)(=O)c2ccc(Cl)cc2)C1 (stereo partly drawn) [Compound A2, N-[2-(4-chlorophenyl)sulfonylisoxazolidin-4-yl]-4-[(5S)-5-(3,5-dichloro-4-fluoro-phenyl)-5-(trifluoromethyl)-4H-isoxazol-3-yl]-2-methyl-benzamide]
≥ 80%: mortality at 200 ppm [1] | mortality at 200 ppm [2] | percent effect (mortality or growth inhibition) at 200 ppm [3] | percent effect (mortality or growth inhibition) at 200 ppm [4] | percent effect (mortality or growth inhibition) at 200 ppm [5] | mortality at 200 ppm [6]

COC(=O)CS(=O)(=O)N1C[C@@H](NC(=O)c2ccc(C3=NO[C@](c4cc(Cl)cc(Cl)c4)(C(F)(F)F)C3)cc2C)CO1 [Compound A176, methyl 2-[[(4R)-4-[[4-[(5R)-5-(3,5-dichlorophenyl)-5-(trifluoromethyl)-4H-1,2-oxazol-3-yl]-2-methylbenzoyl]amino]-1,2-oxazolidin-2-yl]sulfonyl]acetate]
≥ 80%: mortality at 200 ppm [1] | mortality at 200 ppm [2] | percent effect (mortality or growth inhibition) at 200 ppm [3] | percent effect (mortality or growth inhibition) at 200 ppm [4] | percent effect (mortality or growth inhibition) at 200 ppm [5] | mortality at 200 ppm [6]

COC(=O)CN(C)S(=O)(=O)N1CC(NC(=O)c2ccc(C3=NO[C@@](c4cc(Cl)c(Cl)c(Cl)c4)(C(F)(F)F)C3)cc2C)CO1 (stereo partly drawn) [Compound A88, methyl 2-[methyl-[4-[[2-methyl-4-[(5S)-5-(3,4,5-trichlorophenyl)-5-(trifluoromethyl)-4H-isoxazol-3-yl]benzoyl]amino]isoxazolidin-2-yl]sulfonyl-amino]acetate]
≥ 80%: mortality at 200 ppm [1] | mortality at 200 ppm [2] | percent effect (mortality or growth inhibition) at 200 ppm [3] | percent effect (mortality or growth inhibition) at 200 ppm [4] | percent effect (mortality or growth inhibition) at 200 ppm [5] | mortality at 200 ppm [6]

Cc1cc(C2=NO[C@@](c3cc(Cl)cc(Cl)c3)(C(F)(F)F)C2)ccc1C(=O)N[C@@H]1CON(S(=O)(=O)CC(F)(F)F)C1 [Compound A195, 4-[(5S)-5-(3,5-dichlorophenyl)-5-(trifluoromethyl)-4H-1,2-oxazol-3-yl]-2-methyl-N-[(4S)-2-(2,2,2-trifluoroethylsulfonyl)-1,2-oxazolidin-4-yl]benzamide]
≥ 80%: mortality at 200 ppm [1] | mortality at 200 ppm [2] | percent effect (mortality or growth inhibition) at 200 ppm [3] | percent effect (mortality or growth inhibition) at 200 ppm [4] | percent effect (mortality or growth inhibition) at 200 ppm [5] | mortality at 200 ppm [6]

Cc1cc(C2=NO[C@](c3cc(Cl)c(F)c(Cl)c3)(C(F)(F)F)C2)ccc1C(=O)N[C@H]1CON(SC(Cl)(Cl)Cl)C1 [Compound A227, 4-[(5R)-5-(3,5-dichloro-4-fluorophenyl)-5-(trifluoromethyl)-4H-1,2-oxazol-3-yl]-2-methyl-N-[(4R)-2-(trichloromethylsulfanyl)-1,2-oxazolidin-4-yl]benzamide]
≥ 80%: mortality at 200 ppm [1] | mortality at 200 ppm [2] | percent effect (mortality or growth inhibition) at 200 ppm [3] | percent effect (mortality or growth inhibition) at 200 ppm [4] | percent effect (mortality or growth inhibition) at 200 ppm [5] | mortality at 200 ppm [6]

C=CCN(C(=O)OC(C)(C)C)S(=O)(=O)N1CC(NC(=O)c2ccc(C3=NO[C@@](c4cc(Cl)c(F)c(Cl)c4)(C(F)(F)F)C3)cc2C)CO1 (stereo partly drawn) [Compound A94, tert-butyl N-allyl-N-[4-[[4-[(5S)-5-(3,5-dichloro-4-fluoro-phenyl)-5-(trifluoromethyl)-4H-isoxazol-3-yl]-2-methyl-benzoyl]amino]isoxazolidin-2-yl]sulfonyl-carbamate]
≥ 80%: mortality at 200 ppm [1] | mortality at 200 ppm [2] | percent effect (mortality or growth inhibition) at 200 ppm [3] | percent effect (mortality or growth inhibition) at 200 ppm [4] | percent effect (mortality or growth inhibition) at 200 ppm [5] | mortality at 200 ppm [6]

Cc1cc(C2=NO[C@](c3cc(Cl)cc(Cl)c3)(C(F)(F)F)C2)ccc1C(=O)N[C@H]1CON(S(=O)(=O)CC#N)C1 [Compound A165, N-[(4R)-2-(cyanomethylsulfonyl)-1,2-oxazolidin-4-yl]-4-[(5R)-5-(3,5-dichlorophenyl)-5-(trifluoromethyl)-4H-1,2-oxazol-3-yl]-2-methylbenzamide]
≥ 80%: mortality at 200 ppm [1] | mortality at 200 ppm [2] | percent effect (mortality or growth inhibition) at 200 ppm [3] | percent effect (mortality or growth inhibition) at 200 ppm [4] | percent effect (mortality or growth inhibition) at 200 ppm [5] | mortality at 200 ppm [6]

CCOC(=O)CN(C)S(=O)(=O)N1CC(NC(=O)c2ccc(C3=NO[C@@](c4cc(Cl)c(Cl)c(Cl)c4)(C(F)(F)F)C3)cc2C)CO1 (stereo partly drawn) [Compound A89, ethyl 2-[methyl-[4-[[2-methyl-4-[(5S)-5-(3,4,5-trichlorophenyl)-5-(trifluoromethyl)-4H-isoxazol-3-yl]benzoyl]amino]isoxazolidin-2-yl]sulfonyl-amino]acetate]
≥ 80%: mortality at 200 ppm [1] | mortality at 200 ppm [2] | percent effect (mortality or growth inhibition) at 200 ppm [3] | percent effect (mortality or growth inhibition) at 200 ppm [4] | percent effect (mortality or growth inhibition) at 200 ppm [5] | mortality at 200 ppm [6]

Cc1cc(C2=NO[C@@](c3cc(Cl)c(Cl)c(Cl)c3)(C(F)(F)F)C2)ccc1C(=O)NC1CON(S(C)(=O)=O)C1 (stereo partly drawn) [Compound A26, 2-methyl-N-(2-methylsulfonylisoxazolidin-4-yl)-4-[(5S)-5-(3,4,5-trichlorophenyl)-5-(trifluoromethyl)-4H-isoxazol-3-yl]benzamide]
≥ 80%: percent effect (mortality or growth inhibition) at 200 ppm [5]

Cc1cc(C2=NOC(c3ccnc(F)c3)(C(F)(F)F)C2)ccc1C(=O)NC1CON(S(C)(=O)=O)C1 (stereo not drawn) [Compound A54]
≥ 80%: mortality at 200 ppm [2] | percent effect (mortality or growth inhibition) at 200 ppm [3] | percent effect (mortality or growth inhibition) at 200 ppm [4] | percent effect (mortality or growth inhibition) at 200 ppm [5] | mortality at 200 ppm [6]

CNC(=O)CS(=O)(=O)N1C[C@H](NC(=O)c2ccc(C3=NO[C@@](c4cc(Cl)cc(Cl)c4)(C(F)(F)F)C3)cc2C)CO1 [Compound A201]
≥ 80%: mortality at 200 ppm [2] | percent effect (mortality or growth inhibition) at 200 ppm [3] | percent effect (mortality or growth inhibition) at 200 ppm [4] | percent effect (mortality or growth inhibition) at 200 ppm [5] | mortality at 200 ppm [6]

Cc1cc(C2=NO[C@](c3ccc(C(F)(F)F)c(F)c3)(C(F)(F)F)C2)ccc1C(=O)N[C@@H]1CON(S(=O)(=O)N(C)C)C1 [Compound A171]
≥ 80%: mortality at 200 ppm [1] | mortality at 200 ppm [2] | percent effect (mortality or growth inhibition) at 200 ppm [3] | percent effect (mortality or growth inhibition) at 200 ppm [4] | mortality at 200 ppm [6]

CS(=O)(=O)N1CC(NC(=O)c2cnc(C3=NOC(c4cc(Cl)cc(Cl)c4)(C(F)(F)F)C3)c3ccccc23)CO1 (stereo not drawn) [Compound A239]
≥ 80%: mortality at 200 ppm [1] | percent effect (mortality or growth inhibition) at 200 ppm [3] | percent effect (mortality or growth inhibition) at 200 ppm [4] | percent effect (mortality or growth inhibition) at 200 ppm [5] | mortality at 200 ppm [6]

Reference: patent US10588317B2, “Isoxazoline-substituted benzamides and analogues as insecticides” (priority 2015, dated 2020)
